Source: ChEMBL document CHEMBL3352489, “6-Hydroxyquinolinium salts differing in the length of alkyl side-chain: synthesis and antimicrobial activity” (Bioorg Med Chem Lett, 2014)

Tests used:
[1] = system: Candida albicans; experiment: microbe, parasite or virus in culture; type: functional; conditions: ATCC 44859, 48 h
Description: Antifungal activity against Candida albicans ATCC 44859 after 48 hrs by modified standard CSLI M27-A2 method

[2] = system: Candida tropicalis; experiment: Fungicidal activity against Candida tropicalis 156 after 48 hrs by modified standard CSLI M27-A2 method; type: functional; conditions: Candida tropicalis, 156, 48 h
[3] = system: Pseudomonas aeruginosa; experiment: microbe, parasite or virus in culture; type: functional; conditions: CCM 1961, 72 h
Description: Antibacterial activity against Pseudomonas aeruginosa CCM 1961 after 72 hrs by microdilution broth method

[4] = system: Trichosporon asahii; experiment: microbe, parasite or virus in culture; type: functional; conditions: Trichosporon asahii, 1188, 48 h
Description: Antifungal activity against Trichosporon asahii 1188 after 48 hrs by modified standard CSLI M27-A2 method

[5] = Cytotoxicity against CHOK1 cells after 24 hrs by MTT assay; type: ADME, cell-based; conditions: Cricetulus griseus, CHO-K1, 24 h
[6] = system: Enterococcus sp.; experiment: microbe, parasite or virus in culture; type: functional; conditions: J 14365/08, 24 h
Description: Antibacterial activity against Enterococcus sp. J 14365/08 after 24 hrs by microdilution broth method

[7] = system: Trichosporon asahii; experiment: Fungicidal activity against Trichosporon asahii 1188 after 48 hrs by modified standard CSLI M27-A2 method; type: functional; conditions: Trichosporon asahii, 1188, 48 h
[8] = system: Staphylococcus epidermidis; experiment: microbe, parasite or virus in culture; type: functional; conditions: H 6966/08, 48 h
Description: Antibacterial activity against Staphylococcus epidermidis H 6966/08 after 48 hrs by microdilution broth method

[9] = system: Trichosporon asahii; experiment: microbe, parasite or virus in culture; type: functional; conditions: Trichosporon asahii, 1188, 24 h
Description: Antifungal activity against Trichosporon asahii 1188 after 24 hrs by modified standard CSLI M27-A2 method

[10] = system: Staphylococcus aureus; experiment: microbe, parasite or virus in culture; type: functional; conditions: CCM 4516/08, 24 h
Description: Antibacterial activity against Staphylococcus aureus CCM 4516/08 after 24 hrs by microdilution broth method

[11] = system: Staphylococcus epidermidis; experiment: microbe, parasite or virus in culture; type: functional; conditions: H 6966/08, 24 h
Description: Antibacterial activity against Staphylococcus epidermidis H 6966/08 after 24 hrs by microdilution broth method

[12] = system: Escherichia coli; experiment: Bactericidal activity against Escherichia coli CCM 4517 after 48 hrs by microdilution broth method; type: functional; conditions: CCM 4517, 48 h, read-out: MBC>99.9
[13] = system: Staphylococcus aureus; experiment: Bactericidal activity against Staphylococcus aureus CCM 4516/08 after 48 hrs by microdilution broth method; type: functional; conditions: CCM 4516/08, 48 h, read-out: MBC>99.9
[14] = system: Lichtheimia corymbifera; experiment: microbe, parasite or virus in culture; type: functional; conditions: Lichtheimia corymbifera, 272, 48 h
Description: Antifungal activity against Absidia corymbifera 272 after 48 hrs by modified standard CSLI M27-A2 method

[15] = system: Candida tropicalis; experiment: microbe, parasite or virus in culture; type: functional; conditions: Candida tropicalis, 156, 48 h
Description: Antifungal activity against Candida tropicalis 156 after 48 hrs by modified standard CSLI M27-A2 method

[16] = system: Staphylococcus epidermidis; experiment: Bactericidal activity against Staphylococcus epidermidis H 6966/08 after 48 hrs by microdilution broth method; type: functional; conditions: H 6966/08, 48 h, read-out: MBC>99.9
[17] = system: Nakaseomyces glabratus; experiment: Antifungal activity against Candida glabrata 20/I after 48 hrs by modified standard CSLI M27-A2 method; type: functional
[18] = system: Klebsiella pneumoniae; experiment: microbe, parasite or virus in culture; type: functional; conditions: D 11750/08, 48 h
Description: Antibacterial activity against Klebsiella pneumoniae D 11750/08 after 48 hrs by microdilution broth method

[19] = system: Trichophyton mentagrophytes; experiment: microbe, parasite or virus in culture; type: functional; conditions: Trichophyton mentagrophytes, 445, 120 h
Description: Antifungal activity against Trichophyton mentagrophytes 445 after 120 hrs by modified standard CSLI M27-A2 method

[20] = system: Trichophyton mentagrophytes; experiment: Fungicidal activity against Trichophyton mentagrophytes 445 after 120 hrs by modified standard CSLI M27-A2 method; type: functional; conditions: Trichophyton mentagrophytes, 445, 120 h
[21] = system: Trichophyton mentagrophytes; experiment: microbe, parasite or virus in culture; type: functional; conditions: Trichophyton mentagrophytes, 445, 72 h
Description: Antifungal activity against Trichophyton mentagrophytes 445 after 72 hrs by modified standard CSLI M27-A2 method

[22] = system: Lichtheimia corymbifera; experiment: Fungicidal activity against Absidia corymbifera 272 after 48 hrs by modified standard CSLI M27-A2 method; type: functional; conditions: Lichtheimia corymbifera, 272, 48 h
[23] = system: Aspergillus fumigatus; experiment: microbe, parasite or virus in culture; type: functional; conditions: Aspergillus fumigatus, 231, 48 h
Description: Antifungal activity against Aspergillus fumigatus 231 after 48 hrs by modified standard CSLI M27-A2 method

[24] = system: Pichia kudriavzevii; experiment: Antifungal activity against Candida krusei E28 after 24 hrs by modified standard CSLI M27-A2 method; type: functional; conditions: E28, 24 h
[25] = system: Staphylococcus aureus; experiment: microbe, parasite or virus in culture; type: functional; conditions: CCM 4516/08, 48 h
Description: Antibacterial activity against Staphylococcus aureus CCM 4516/08 after 48 hrs by microdilution broth method

[26] = system: Nakaseomyces glabratus; experiment: Fungicidal activity against Candida glabrata 20/I after 48 hrs by modified standard CSLI M27-A2 method; type: functional
[27] = system: Pseudomonas aeruginosa; experiment: microbe, parasite or virus in culture; type: functional; conditions: CCM 1961, 120 h
Description: Antibacterial activity against Pseudomonas aeruginosa CCM 1961 after 120 hrs by microdilution broth method

[28] = system: Pseudomonas aeruginosa; experiment: Bactericidal activity against Pseudomonas aeruginosa CCM 1961 after 120 hrs by microdilution broth method; type: functional; conditions: CCM 1961, 120 h, read-out: MBC>99.9
[29] = system: Klebsiella pneumoniae; experiment: Bactericidal activity against Klebsiella pneumoniae J 14368/08 after 48 hrs by microdilution broth method; type: functional; conditions: J 14368/08, 48 h, read-out: MBC>99.9
[30] = system: Klebsiella pneumoniae; experiment: Bactericidal activity against Klebsiella pneumoniae D 11750/08 after 24 hrs by microdilution broth method; type: functional; conditions: D 11750/08, 24 h, read-out: MBC>99.9
[31] = system: Klebsiella pneumoniae; experiment: microbe, parasite or virus in culture; type: functional; conditions: D 11750/08, 24 h
Description: Antibacterial activity against Klebsiella pneumoniae D 11750/08 after 24 hrs by microdilution broth method

[32] = system: Pichia kudriavzevii; experiment: Antifungal activity against Candida krusei E28 after 48 hrs by modified standard CSLI M27-A2 method; type: functional; conditions: E28, 48 h
[33] = system: Klebsiella pneumoniae; experiment: microbe, parasite or virus in culture; type: functional; conditions: J 14368/08, 48 h
Description: Antibacterial activity against Klebsiella pneumoniae J 14368/08 after 48 hrs by microdilution broth method

[34] = system: Candida tropicalis; experiment: microbe, parasite or virus in culture; type: functional; conditions: Candida tropicalis, 156, 24 h
Description: Antifungal activity against Candida tropicalis 156 after 24 hrs by modified standard CSLI M27-A2 method

[35] = system: Nakaseomyces glabratus; experiment: Antifungal activity against Candida glabrata 20/I after 24 hrs by modified standard CSLI M27-A2 method; type: functional
[36] = system: Candida albicans; experiment: Fungicidal activity against Candida albicans ATCC 44859 after 48 hrs by modified standard CSLI M27-A2 method; type: functional; conditions: ATCC 44859, 48 h
[37] = system: Escherichia coli; experiment: microbe, parasite or virus in culture; type: functional; conditions: CCM 4517, 24 h
Description: Antibacterial activity against Escherichia coli CCM 4517 after 24 hrs by microdilution broth method

[38] = system: Aspergillus fumigatus; experiment: microbe, parasite or virus in culture; type: functional; conditions: Aspergillus fumigatus, 231, 24 h
Description: Antifungal activity against Aspergillus fumigatus 231 after 24 hrs by modified standard CSLI M27-A2 method

[39] = system: Staphylococcus aureus; experiment: microbe, parasite or virus in culture; type: functional; conditions: H 5996/08, 24 h
Description: Antibacterial activity against Staphylococcus aureus H 5996/08 after 24 hrs by microdilution broth method

[40] = system: Klebsiella pneumoniae; experiment: microbe, parasite or virus in culture; type: functional; conditions: J 14368/08, 24 h
Description: Antibacterial activity against Klebsiella pneumoniae J 14368/08 after 24 hrs by microdilution broth method

[41] = system: Enterococcus sp.; experiment: Bactericidal activity against Enterococcus sp. J 14365/08 after 48 hrs by microdilution broth method; type: functional; conditions: J 14365/08, 48 h, read-out: MBC>99.9
[42] = system: Candida albicans; experiment: microbe, parasite or virus in culture; type: functional; conditions: ATCC 44859, 24 h
Description: Antifungal activity against Candida albicans ATCC 44859 after 24 hrs by modified standard CSLI M27-A2 method

[43] = system: Lichtheimia corymbifera; experiment: microbe, parasite or virus in culture; type: functional; conditions: Lichtheimia corymbifera, 272, 24 h
Description: Antifungal activity against Absidia corymbifera 272 after 24 hrs by modified standard CSLI M27-A2 method

[44] = system: Escherichia coli; experiment: microbe, parasite or virus in culture; type: functional; conditions: CCM 4517, 48 h
Description: Antibacterial activity against Escherichia coli CCM 4517 after 48 hrs by microdilution broth method

[45] = system: Staphylococcus aureus; experiment: Bactericidal activity against Staphylococcus aureus H 5996/08 after 48 hrs by microdilution broth method; type: functional; conditions: H 5996/08, 48 h, read-out: MBC>99.9
[46] = system: Staphylococcus aureus; experiment: microbe, parasite or virus in culture; type: functional; conditions: H 5996/08, 48 h
Description: Antibacterial activity against Staphylococcus aureus H 5996/08 after 48 hrs by microdilution broth method

[47] = system: Aspergillus fumigatus; experiment: Fungicidal activity against Aspergillus fumigatus 231 after 48 hrs by modified standard CSLI M27-A2 method; type: functional; conditions: Aspergillus fumigatus, 231, 48 h
[48] = system: Enterococcus sp.; experiment: microbe, parasite or virus in culture; type: functional; conditions: J 14365/08, 48 h
Description: Antibacterial activity against Enterococcus sp. J 14365/08 after 48 hrs by microdilution broth method

[49] = system: Pichia kudriavzevii; experiment: Fungicidal activity against Candida krusei E28 after 48 hrs by modified standard CSLI M27-A2 method; type: functional; conditions: E28, 48 h

CCCCCCCCCCCCCC[N+](C)(C)Cc1ccccc1 gave an MIC [1] of 7.81 µM, an MFC [2] of 125 µM and an MIC95 [3] of 15.6 µM. For the same molecule, the MIC [4] was 31.2 µM, the IC50 [5] was 24 µM and the MIC95 [6] was 1.95 µM. It also gave an MFC [7] of 125 µM, an MIC95 [8] of 0.98 µM and an MIC [9] of 31.2 µM. For the same molecule, the MIC95 [10] was 0.98 µM, the MIC95 [11] was 0.98 µM and the MBC [12] was 7.81 µM. It also gave an MBC [13] of 3.91 µM, an MIC [14] of 31.2 µM and an MIC [15] of 3.91 µM. It also gave an MBC [16] of 0.98 µM, an MIC [17] of 7.81 µM and an MIC95 [18] of 7.81 µM. It also gave an MIC [19] of 15.6 µM, an MFC [20] of 15.6 µM and an MIC [21] of 15.6 µM. The MFC [22] was 125 µM, the MIC [23] was 15.6 µM and the MIC [24] was 3.91 µM. For the same molecule, the MIC95 [25] was 0.98 µM, the MFC [26] was 125 µM and the MIC95 [27] was 31.2 µM. The MBC [28] was 62.5 µM, the MBC [29] was 7.81 µM and the MBC [30] was 7.81 µM. For the same molecule, the MIC95 [31] was 7.81 µM, the MIC [32] was 3.91 µM and the MIC95 [33] was 7.81 µM. The MIC [34] was 3.91 µM, the MIC [35] was 7.81 µM and the MFC [36] was 125 µM. For the same molecule, the MIC95 [37] was 7.81 µM, the MIC [38] was 7.81 µM and the MIC95 [39] was 1.95 µM. For the same molecule, the MIC95 [40] was 7.81 µM, the MBC [41] was 7.81 µM and the MIC [42] was 7.81 µM. The MIC [43] was 31.2 µM, the MIC95 [44] was 7.81 µM and the MBC [45] was 3.91 µM. It also gave an MIC95 [46] of 1.95 µM, an MFC [47] of 125 µM and an MIC95 [48] of 1.95 µM. It also gave an MFC [49] of 125 µM.

With CCCCCCCCCCCC[n+]1ccccc1 the MIC [1] was 1.95 µM, the MFC [2] was 3.91 µM and the MIC95 [3] was 7.81 µM. The MIC [4] was 15.6 µM, the IC50 [5] was 39 µM and the MIC95 [6] was 1.95 µM. For the same molecule, the MFC [7] was 15.6 µM, the MIC95 [8] was 3.91 µM and the MIC [9] was 7.81 µM. For the same molecule, the MIC95 [10] was 0.49 µM, the MIC95 [11] was 0.98 µM and the MBC [12] was 3.91 µM. The MBC [13] was 1.95 µM, the MIC [14] was 125 µM and the MIC [15] was 1.95 µM. For the same molecule, the MBC [16] was 3.91 µM, the MIC [17] was 0.49 µM and the MIC95 [18] was 7.81 µM. It also gave an MIC [19] of 3.91 µM, an MFC [20] of 3.91 µM and an MIC [21] of 1.95 µM. It also gave an MFC [22] of 250 µM, an MIC [23] of 31.2 µM and an MIC [24] of 0.49 µM. The MIC95 [25] was 1.95 µM, the MFC [26] was 0.49 µM and the MIC95 [27] was 7.81 µM. For the same molecule, the MBC [28] was 7.81 µM, the MBC [29] was 7.81 µM and the MBC [30] was 7.81 µM. The MIC95 [31] was 3.91 µM, the MIC [32] was 0.49 µM and the MIC95 [33] was 7.81 µM. It also gave an MIC [34] of 0.49 µM, an MIC [35] of 0.49 µM and an MFC [36] of 1.95 µM. For the same molecule, the MIC95 [37] was 1.95 µM, the MIC [38] was 3.91 µM and the MIC95 [39] was 3.91 µM. The MIC95 [40] was 7.81 µM, the MBC [41] was 3.91 µM and the MIC [42] was 0.98 µM. The MIC [43] was 62.5 µM, the MIC95 [44] was 3.91 µM and the MBC [45] was 3.91 µM. It also gave an MIC95 [46] of 3.91 µM, an MFC [47] of 31.2 µM and an MIC95 [48] of 3.91 µM. For the same molecule, the MFC [49] was 0.49 µM.

CCCCCCCCCCCCCCCC[n+]1ccccc1 [CETYLPYRIDINIUM BROMIDE] showed an MFC [2] of 3.9 µM, an MFC [7] of 7.81 µM and an MBC [12] of 7.81 µM. For the same molecule, the MBC [13] was 3.91 µM, the MBC [16] was 3.91 µM and the MFC [20] was 7.81 µM. The MFC [22] was 62.5 µM, the MFC [26] was 3.91 µM and the MBC [28] was 125 µM. For the same molecule, the MBC [29] was 7.81 µM, the MBC [30] was 15.6 µM and the MFC [36] was 15.6 µM. For the same molecule, the MBC [41] was 7.81 µM, the MBC [45] was 3.91 µM and the MFC [47] was 15.6 µM. The MFC [49] was 1.95 µM.
